From PubChem BioAssay AID504877 (The Scripps Research Institute Molecular Screening Center, 2011)
Several values for one entry are separate records, joined by “and”; a condition that tells them apart may be missing. Identical values can stand only once. Activity calls are given as the source filed them. The rule behind the calls is not given here.

Biological target: Sphingosine 1-phosphate receptor 4 (Homo sapiens) (UniProt O95977)
Test: S1P4 receptor agonist potency, late-stage follow-up, cell-based, fluorescence, dose response, synthesized compounds set 2 (AID 504877)
Settings: S1P4 cell-based agonist assay, fluorescence read-out

Compound	EC50 (run 1)	EC50 (run 2)	EC50 (run 3)
C/N=C1/SC(=Cc2cc(C)n(Cc3ccc(F)cc3F)c2C)C(=O)N1C	84.7 nM	195 nM	161 nM
CCN=C1S/C(=C\c2cc(C)n(-c3ccccc3)c2C)C(=O)N1CC	635 nM	705 nM	465 nM
COCCN=C1S/C(=C\c2cc(C)n(-c3ccc(F)cc3F)c2C)C(=O)N1C	37.7 nM and 51.4 nM	79.1 nM	
CCN=C1S/C(=C/c2cc(C)n(C(C)c3ccccc3)c2C)C(=O)N1CC (stereo not drawn)	inactive	> 50000 nM (inactive)	inactive
COCCN=C1S/C(=C\c2cc(C)n(Cc3ccccc3)c2C)C(=O)N1CCOC	> 50000 nM (inactive)	> 50000 nM (inactive)	inactive
CCN=C1S/C(=C/c2cc(C)n(-c3ncccc3F)c2C)C(=O)N1CC	5310 nM	inactive	918 nM
CCN=C1S/C(=C/c2ccn(-c3ccc(F)cc3F)c2)C(=O)N1CC	inactive	> 50000 nM (inactive)	5390 nM
CN=C1S/C(=C\c2cc(C)n(-c3ccc(F)cc3F)c2C)C(=O)N1CCOC	1580 nM	1.85 nM	
Cc1cc(/C=c2\sc3n(c2=O)CCCN=3)c(C)n1-c1ccccc1F	> 50000 nM (inactive)	> 50000 nM (inactive)	> 50000 nM (inactive)
CCN=C1S/C(=C/c2cc(C)n(-c3ccc(Cl)cc3F)c2C)C(=O)N1CC	490 nM	733 nM	370 nM
CCN=C1S/C(=C\c2cc(C)n(Cc3ccccc3F)c2C)C(=O)N1CC	> 50000 nM (inactive)	> 50000 nM (inactive)	> 50000 nM (inactive)
CN=C1S/C(=C\c2cc(C)n(-c3ccccc3Br)c2C)C(=O)N1C	> 50000 nM (inactive)	> 50000 nM (inactive)	> 50000 nM (inactive)
CCN=C1S/C(=C\c2ccn(-c3ccccc3F)c2)C(=O)N1CC	> 50000 nM (inactive)	> 50000 nM (inactive)	inactive
Cc1cc(/C=C2\SC(=Nc3ccccc3)NC2=O)c(C)n1-c1ccccc1F	> 50000 nM (inactive)	> 50000 nM (inactive)	> 50000 nM (inactive)
CN=C1S/C(=C/c2cc(C)n(-c3ccccc3C)c2C)C(=O)N1C	> 50000 nM (inactive)	> 50000 nM (inactive)	inactive
Cc1cc(/C=C2\SC(=O)N(C)C2=O)c(C)n1-c1ccccc1F	> 50000 nM (inactive)	> 50000 nM (inactive)	8960 nM
CN=C1NC(=O)/C(=C\c2cc(C)n(-c3cccc(F)c3)c2C)S1	> 50000 nM (inactive)	> 50000 nM (inactive)	> 50000 nM (inactive)
CCN=C1S/C(=C\c2cc(C)n(-c3ccccc3F)c2C)C(=O)N1CC	116 nM	268 nM	368 nM
CN=C1S/C(=C/c2cc(C)n(-c3ccc(F)cc3F)c2C)C(=O)N1C	113 nM	199 nM	317 nM
CN=C1NC(=O)/C(=C\c2cc(C)n(-c3ccccc3F)c2C)S1	5380 nM	4530 nM	942 nM
CN=C1S/C(=C/c2cc(C)n(-c3ccc(Cl)cc3F)c2C)C(=O)N1C	432 nM	686 nM	202 nM
CN=C1S/C(=C/c2cc(C)n(Cc3ccccc3)c2C)C(=O)N1C	203 nM	454 nM	130 nM
CN=C1S/C(=C\c2ccn(Cc3ccccc3)c2)C(=O)N1C	> 50000 nM (inactive)	> 50000 nM (inactive)	> 50000 nM (inactive)
CN=C1S/C(=C/c2cc(C)n(-c3cc(C)ccc3OC)c2C)C(=O)N1C	> 50000 nM (inactive)	> 50000 nM (inactive)	> 50000 nM (inactive)
CCN=C1S/C(=C/c2cc(C)n(-c3ccccn3)c2C)C(=O)N1CC	158 nM	212 nM	102 nM
CC/N=C1/SC(=Cc2cc(C)n(Cc3ccccc3OC)c2C)C(=O)N1CC	274 nM	663 nM	285 nM
CCN=C1S/C(=C/c2cc(C)n(-c3ccc(F)cc3F)c2C)C(=O)N1CC	75.3 nM	133 nM	104 nM
CCN=C1S/C(=C/c2cc(C)n(Cc3ccccc3)c2C)C(=O)N1CC	598 nM	703 nM	154 nM
CN=C1S/C(=C\c2ccn(-c3ccccc3F)c2)C(=O)N1C	> 50000 nM (inactive)	> 50000 nM (inactive)	> 50000 nM (inactive)
Cc1cc(/C=C2\SC(=NC(C)C)N(C(C)C)C2=O)c(C)n1-c1ccccc1F	> 50000 nM (inactive)	> 50000 nM (inactive)	> 50000 nM (inactive)
